Measured values: PubChem BioAssay AID489022 (Sanford-Burnham Center for Chemical Genomics, 2010)
Active and inactive are the calls of the source. No rule for the calls is given here.

tested on: HEK-293T NF-kB luciferase reporter, luminescence counterscreen; test: inhibitors of NF-kB luciferase reporter, HEK-293T, dose response, counter-screen for BCR NF-kB inhibitor project, luminescence, B-cell screen hits (AID 489022)

| Compound | IC50 |
| --- | --- |
| Cc1ccccc1-c1cc(C(=O)Nc2sc(C(=O)OC(C)C)c(C)c2C#N)c2ccccc2n1 | 0.35 µM |
| Cc1ccc(/C=C2/SC(=S)N(CCCC(=O)Nc3ccc(O)cc3)C2=O)cc1 | > 80 µM (inactive) |
| CCN(CC)c1ccc(/C=C2/C(=O)ON=C2C)cc1 | > 80 µM (inactive) |
| CC1CCN(CCCNC(=O)COc2cc(=O)n(C)c3ccccc23)CC1 | > 80 µM (inactive) |
| Cc1nc2cc(-c3ccccc3)nn2c(C)c1CCC(=O)NCc1ccco1 | > 80 µM (inactive) |
| COc1ccc(/C=C2\SC(=S)N(CCCC(=O)NNC(=O)c3ccccc3O)C2=O)cc1 | 2.28 µM |
| C=CCOc1ccccc1CN(C(=O)CCl)c1ccc2c(c1)OCO2 | 28.1 µM (inactive) |
| Cc1c(CCO)c(=O)oc2n[nH]c(-c3ccccc3)c12 | > 80 µM (inactive) |
| Cc1nc2cc(-c3cccc(F)c3)nn2c(C)c1CCC(=O)N1CCC2(CC1)OCCO2 | 34 µM (inactive) |
| CCOc1ccc(-c2nc(CSCC(=O)NC3CC3)c(C)o2)cc1 | > 80 µM (inactive) |
| CCC(=O)N(C1=C(NC)C(=O)c2ccccc2C1=O)C(C)C | > 80 µM (inactive) |
| CCCCOc1ccc(NC(=O)C(=O)NCCCn2ccnc2)cc1 | 44.6 µM (inactive) |
| COc1ccc(/C=C\C(=O)O[C@@H]2C(O)C(O[C@@H]3OC(C)[C@H](O[C@@H]4OCC(O[C@H]5O[C@H](CO)[C@@H](O)C(O)C5O)C(O)C4O)C(O)C3O)[C@H](OC(=O)[C@]34CCC(C)(C)C[C@@H]3C3=CCC5[C@@]6(C)CC(O)C(O[C@@H]7OC(CO)C(O)[C@H](O)[C@H]7O)[C@@](C)(C(=O)O)C6CC[C@@]5(C)[C@]3(CO)CC4)O[C@H]2C)cc1 (stereo partly specified) | 45.7 µM (inactive) |
| COc1ccc(-c2noc(N3CCC(C(=O)Nc4ccc(OC)c(OC)c4)CC3)n2)cc1 | > 80 µM (inactive) |
| CCCCn1c2c(c(=N)c3ccccc31)CCC2 | 40.8 µM (inactive) |
| CSC1CCCCC1(O)CSc1nc2c(cc1C#N)CCCC2 (stereo unspecified) | > 80 µM (inactive) |
| COc1ccc(/C=N/OCC(=O)NC(c2ccccc2)c2ccccc2)cc1OC | 0.72 µM |
| OCCN1CCN(C(=S)c2ccc(-c3ccccc3)cc2)CC1 | 31.6 µM (inactive) |
| O=S(=O)(c1cnc(Cl)c(Cl)c1)N1CCCc2ccccc21 | > 80 µM (inactive) |
| Cc1c(CCC(=O)N2CCC(C(=O)O)(c3ccccc3)CC2)c(=O)oc2cc3oc4c(c3cc12)CCCC4 | 21.6 µM (inactive) |
| Cn1c(=O)cc(SCC(=O)N2CCCC2)c2cc(Cl)ccc21 | > 80 µM (inactive) |
| O=C1CCCc2c1[nH]c1ccc(CN3CCCCC3)cc21 | > 80 µM (inactive) |
| CCOC(=O)Cc1csc(NC(=S)NC(=O)c2ccc(C)cc2)n1 | > 80 µM (inactive) |
| Cc1ccccc1-n1c(SCc2c(C)noc2C)nnc1-c1c[nH]c2ccccc12 | 33.8 µM (inactive) |

| Compound | IC50 |
| --- | --- |
| CN(CC1CCCO1)S(=O)(=O)c1ccc(C(=O)Nc2nc3cc4c(cc3s2)OCO4)cc1 (stereo unspecified) | 0.36 µM |
| O=C(CCCN1C(=O)/C(=C/c2ccccc2Cl)SC1=S)NNC(=O)c1ccc(Cl)cc1Cl | > 80 µM (inactive) |
| CCN(CC)C(=O)c1ccc(S(=O)(=O)Cc2ccc(C)cc2)c([N+](=O)[O-])c1 | 34.7 µM (inactive) |
| CCNC(=O)CCc1nc(-c2ccc(C(C)(C)C)cc2)no1 | 34.9 µM (inactive) |
| CN(C)CCCN=Cc1c(-c2ccccc2)[nH]n(-c2nc3ccccc3s2)c1=O | > 80 µM (inactive) |
| COc1cccc(Cn2nnc(C(=O)Nc3cc(Cl)ccc3OC)c2N)c1 | > 80 µM (inactive) |
| Cn1c(=O)n(C)c2cc(NS(=O)(=O)c3ccccc3)ccc21 | 59.3 µM (inactive) |
| COc1ccc(NC(=O)c2cc(-c3ccccn3)nc3ccccc23)cc1S(=O)(=O)N(C)C | 51.4 µM (inactive) |
| COc1cc(C2C(C#N)=C(N)Oc3cc(N)ccc32)cc(OC)c1OC (stereo unspecified) | > 80 µM (inactive) |
| COc1ccc(C2=NCc3nnc(C)n3-c3ccc(Cl)cc32)cc1Cl | > 80 µM (inactive) |
| Cc1ccc(-c2nc(C(=O)NCC3CCCO3)cc3c2[nH]c2ccccc23)cc1 (stereo unspecified) | 8.81 µM |
| Cc1ccc(-c2cn(-c3ccccc3)c3[n+]2CCCS3)cc1 | 4.88 µM |
| NC(=O)C1CCN(C(=O)COc2ccc3ccccc3c2Br)CC1 | > 80 µM (inactive) |
| O=C(CCCN1C(=O)/C(=C/c2ccccc2Cl)SC1=S)NNC(=O)c1ccncc1 | 12.7 µM |
| CCN(CC)c1ccc2cc(NC(=O)CCC(=O)O)c(=O)oc2c1 | 1.38 µM |
| CC1=CC(C)(C)Nc2ccc(OC(=O)CN3C(=O)CCC3=O)cc21 | 11.1 µM |
| COc1ccc(C(=O)Nc2ccc(OC)c([N+](=O)[O-])c2)cc1Br | > 80 µM (inactive) |
| CCC(C)NC(=O)c1c(N)n(/N=C/c2ccccn2)c2nc3ccccc3nc12 (stereo unspecified) | 34.8 µM (inactive) |
| Cc1c(NC(=O)/C=C/c2cn(-c3ccccc3)nc2-c2ccccc2)c(=O)n(-c2ccccc2)n1C | > 80 µM (inactive) |
| C=CCOC(=O)COc1cc(C)cc2oc(=O)c3c(c12)CCC3 | > 80 µM (inactive) |
| CC(C)c1[nH]nc2c1C(c1ccco1)C(C#N)=C(N)O2 (stereo unspecified) | > 80 µM (inactive) |
| O=C(Nc1ccc(NC(=O)c2cc3ccccc3o2)cc1)c1ccc2c(c1)OCCO2 | > 80 µM (inactive) |
| Cc1ccc(/C=C2\SC(=S)N(CCCC(=O)Nc3cc(C)on3)C2=O)cc1 | > 80 µM (inactive) |
| CC1=CC(C)(C)Nc2ccc(OC(=O)c3cccnc3)cc21 | 16.1 µM |

| Compound | IC50 |
| --- | --- |
| CC(C)C(c1nnnn1Cc1ccccc1)N(Cc1ccco1)Cc1cccs1 (stereo unspecified) | 8.89 µM |
| Cc1ccc2nc(NC(=O)CSCC(=O)OCC(=O)c3ccc(Br)cc3)sc2c1 | 1.82 µM |
| O=C(c1cc2nc(-c3ccccc3)cc(-c3ccccc3)n2n1)N1CCN(C(=O)c2ccco2)CC1 | 11 µM |
| CC(=O)C1=NN(c2ccccc2)C(c2cccs2)N1c1ccc(N(C)C)cc1 (stereo unspecified) | 5.42 µM |
| CCOc1ccc(-c2c[n+]3c(n2-c2ccccc2)CCCCC3)cc1 | 3.28 µM |
| O=C(NCCC1CCCCN1S(=O)(=O)c1ccc(Cl)cc1)C(=O)NCc1ccncc1 (stereo unspecified) | 20.4 µM (inactive) |
| Cc1ccc(-c2c[n+]3c(n2-c2ccccc2)SCC3)cc1 | 7.4 µM |
| CCOc1ccc(-c2nnc(SCC(=O)Nc3cc(C)on3)o2)cc1 | > 80 µM (inactive) |
| CCN1CCN(C(=O)CSc2cc(=O)n(CC)c3ccccc23)CC1 | > 80 µM (inactive) |
| CCn1c(=O)c2cc(C(=O)NC(C)C)sc2c2ccccc21 | > 80 µM (inactive) |
| CCN(CC)CCCN=Cc1c(-c2ccccc2)[nH]n(-c2nc3ccccc3s2)c1=O | > 80 µM (inactive) |
| CC(C)[C@H](N)c1nnc(SCC(=O)c2ccc(Cl)cc2)o1 | > 80 µM (inactive) |
| COc1ccc(-c2noc(CCCC(=O)O)n2)cc1 | 4.02 µM |
| Cc1nn(-c2ccc(N3CCCCC3)nn2)c(C)c1CCC(=O)Nc1ccccc1F | 73.3 µM (inactive) |
| Cc1ccc(-c2nn3c(C)nnc3c3ccccc23)cc1S(=O)(=O)N1CCN(CCO)CC1 | 22.4 µM (inactive) |
| O=C(Oc1cccc(/C=N/Nc2nc(Nc3ccccc3)nc(N3CCOCC3)n2)c1)c1ccco1 | > 80 µM (inactive) |
| COc1ccc2nc(Sc3c([N+](=O)[O-])nc(C)n3Cc3ccccc3)[nH]c2c1 | 55.4 µM (inactive) |
| CCOC(=O)c1nn(-c2ccccc2)c(C#N)c1NC(=O)c1nn(CC)cc1Br | > 80 µM (inactive) |
| CCn1c(=O)c2cc(C(=O)NCc3cccs3)sc2c2ccccc21 | > 80 µM (inactive) |
| N=c1c2c(n(Cc3ccc(Cl)cc3Cl)c3c1CCC3)CCCC2 | 3.43 µM |
| O=C(CCCN1C(=O)S/C(=C\c2ccccc2)C1=O)NNC(=O)c1ccccc1O | 1.64 µM |
| O=C(N/N=C/c1cccnc1)c1cc(-c2ccccc2OCc2ccccc2)n[nH]1 | 12.7 µM |
| CCOc1ccc(/C=C2\SC(=S)N(CCCC(=O)NCCCN3CCOCC3)C2=O)cc1 | > 80 µM (inactive) |
| Nc1ccc(-c2cc3ccccc3oc2=O)cc1 | 3.53 µM |

| Compound | IC50 |
| --- | --- |
| Cc1cc(C)c2nc(NC(=O)C3CSC4(C)CCC(=O)N34)sc2c1 (stereo unspecified) | > 80 µM (inactive) |
| CCOc1ccc(NC(=O)CCCc2cc(-c3ccc(OCC)cc3)on2)cc1 | > 80 µM (inactive) |
| COc1ccc(/C=C2/SC(=S)N(CCCC(=O)Nc3ccc(O)cc3)C2=O)cc1 | > 80 µM (inactive) |
| Cc1nn(C)c(C)c1CN(C)S(=O)(=O)c1ccc2ccccc2c1 | 0.36 µM |
| COc1ccc(-c2csc3nc(-c4cccnc4)nc(N4CCC(C(N)=O)CC4)c23)cc1OC | 9.06 µM |
| COc1cc2c3c(c1)c(N=NC(N)=S)c(O)n3C(C)(C)C=C2C | > 80 µM (inactive) |
| Cc1nc2cc(-c3ccc(Cl)cc3)nn2c(C)c1CCC(=O)NC(C)c1ccc2c(c1)OCCO2 (stereo unspecified) | 11.5 µM |
| CCN(CC(=O)Nc1c(F)cccc1F)C(=O)c1cc(S(=O)(=O)N(C)C)ccc1N1CCCC1 | > 80 µM (inactive) |
| COc1ccc(/C=C2\SC(=S)N(CCC(=O)Nc3ccc(C(=O)O)cc3)C2=O)cc1OC | > 80 µM (inactive) |
| CC1CCC/C=C/C2CC(O)CC2C(O)/C=C/C(=O)O1 (stereo unspecified) | 0.53 µM |
| COc1cc(-c2nc(C(=O)NCC3CCCO3)cc3c2[nH]c2ccccc23)cc(OC)c1OC (stereo unspecified) | 13.7 µM |
| Cc1[nH]c2ccccc2c1/C=N/Nc1nc(Nc2ccccc2)nc(N2CCOCC2)n1 | > 80 µM (inactive) |
| COC(=O)c1c(NC(=O)c2cccc([N+](=O)[O-])c2)sc(C(N)=O)c1C | > 80 µM (inactive) |
| CCOc1ccc(-c2cc(CCCC(=O)NCc3ccco3)no2)cc1 | 22.1 µM (inactive) |
| Cc1nc([N+](=O)[O-])c(Sc2nc3ccc([N+](=O)[O-])cc3[nH]2)n1Cc1ccccc1 | 47.5 µM (inactive) |
| CCOC(=O)CNC(=O)CSc1nnc(NC(=O)c2ccc(C)cc2)s1 | 7.13 µM |
| COc1ccc(-c2noc(CCCC(=O)Nc3ccc(C(N)=O)cc3)n2)cc1 | 27.3 µM (inactive) |
| COc1ccc(NS(=O)(=O)c2ccc(-c3coc(C)n3)cc2)cc1OC | 0.66 µM |
| Cc1ccc(C)c(-n2nnnc2Sc2nnnn2-c2ccccc2)c1 | 6.7 µM |
| CCN1C(=O)c2cccc3c(S(=O)(=O)N4CCC(C)CC4)ccc1c23 | 17.5 µM |
| CCCCCOc1ccc(NC(=O)C(=O)NCCCn2ccnc2)cc1 | 42.8 µM (inactive) |
| CCOc1cc2nc(-c3ccc(OC)c(OC)c3)nc(N3CCOCC3)c2cc1OC | 7.5 µM |
| COc1ccc(OC)c(C2CC(=O)Nc3cc(OC)c(OC)c(OC)c32)c1 (stereo unspecified) | > 80 µM (inactive) |
| Cc1cc(C)cc(NC(=O)Nc2ccc(NC(=O)c3ccccc3O)cc2)c1 | > 80 µM (inactive) |
